Test results as given in ChEMBL document CHEMBL4831556, “Discovery of a Novel Potent and Selective Calcium Release-Activated Calcium Channel Inhibitor: 2,6-Difluoro-N-(2'-methyl-3'-(4-methyl-5-oxo-4,5-dihydro-1,3,4-oxadiazol-2-yl)-[1,1'-biphenyl]-4-yl)benzamide. Structure-Activity Relationship and Preclinical Characterization” (J Med Chem, 2021).

Tests used:
[1] = Cmax in BALB/c mouse at 10 mg/kg, po measured upto 24 hrs by LC-MS/MS analysis; type: ADME, organism-based; set-up: route oral, dose 10 mg/kg, time <=24; conditions: in vivo
[2] = Oral bioavailability in BALB/c mouse at 10 mg/kg measured upto 24 hrs by LC-MS/MS analysis; type: ADME, organism-based; conditions: in vivo
[3] = Apparent permeability across basolateral to apical side in human Caco-2 cells at 5 uM measured upto 120 mins in orbital shaker; type: ADME, cell-based
[4] = Clearance in Lewis rat at 1 mg/kg, iv measured upto 24 hrs by LC-MS/MS analysis; type: ADME, organism-based; conditions: in vivo
[5] = Cmax in Lewis rat at 1 mg/kg, iv measured upto 24 hrs by LC-MS/MS analysis; type: ADME, organism-based; set-up: route intravenous, dose 1 mg/kg, time <=24; conditions: in vivo
[6] = Oral bioavailability in Lewis rat at 10 mg/kg measured upto 24 hrs by LC-MS/MS analysis; type: ADME, organism-based; conditions: in vivo
[7] = Cmax in BALB/c mouse at 1 mg/kg, iv measured upto 24 hrs by LC-MS/MS analysis; type: ADME, organism-based; set-up: route intravenous, dose 1 mg/kg, time <=24; conditions: in vivo
Cytochrome P450 2E1 = Cytochrome P450 2E1 (Homo sapiens, UniProt P05181); experiment: Inhibition of CYP2E1 in human liver microsomes at 10 uM by LC-MS/MS analysis; type: ADME
Cytochrome P450 2E1, sequence (P05181 whole entry): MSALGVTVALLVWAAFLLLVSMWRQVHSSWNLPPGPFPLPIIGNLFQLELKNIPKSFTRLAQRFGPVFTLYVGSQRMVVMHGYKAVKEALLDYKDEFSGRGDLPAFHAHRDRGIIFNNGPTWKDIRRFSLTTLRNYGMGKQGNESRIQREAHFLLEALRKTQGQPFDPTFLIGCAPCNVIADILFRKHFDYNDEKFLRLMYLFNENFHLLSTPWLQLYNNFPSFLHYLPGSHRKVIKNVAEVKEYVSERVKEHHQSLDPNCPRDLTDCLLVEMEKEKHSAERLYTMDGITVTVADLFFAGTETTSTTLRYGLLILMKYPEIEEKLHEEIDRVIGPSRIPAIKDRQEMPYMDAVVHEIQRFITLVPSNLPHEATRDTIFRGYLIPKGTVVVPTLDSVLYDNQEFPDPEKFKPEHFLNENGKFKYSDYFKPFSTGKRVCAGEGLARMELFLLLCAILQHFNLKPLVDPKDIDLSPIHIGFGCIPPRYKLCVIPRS

[8] = Apparent permeability across apical to basolateral side in human Caco-2 cells at 5 uM measured upto 120 mins in orbital shaker; type: ADME, cell-based
Cytochrome P450 2C9 = Cytochrome P450 2C9 (Homo sapiens, UniProt P11712); experiment: Inhibition of CYP2C9 in human liver microsomes at 10 uM by LC-MS/MS analysis; type: ADME
Cytochrome P450 2C9, sequence (P11712 whole entry): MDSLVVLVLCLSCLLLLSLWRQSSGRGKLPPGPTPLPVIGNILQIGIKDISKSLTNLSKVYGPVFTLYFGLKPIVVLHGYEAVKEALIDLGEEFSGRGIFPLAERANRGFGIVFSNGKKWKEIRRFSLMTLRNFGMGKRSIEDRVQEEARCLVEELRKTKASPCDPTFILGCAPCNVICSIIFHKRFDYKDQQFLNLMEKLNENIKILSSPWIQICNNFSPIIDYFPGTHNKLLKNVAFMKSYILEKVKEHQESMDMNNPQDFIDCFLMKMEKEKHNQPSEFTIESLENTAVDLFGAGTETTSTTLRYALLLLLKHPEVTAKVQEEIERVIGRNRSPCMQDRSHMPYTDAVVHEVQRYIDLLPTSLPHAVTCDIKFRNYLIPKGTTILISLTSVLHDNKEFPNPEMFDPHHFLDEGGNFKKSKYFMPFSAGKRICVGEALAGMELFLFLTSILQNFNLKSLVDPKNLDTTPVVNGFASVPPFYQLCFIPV

[9] = Volume of distribution at steady state in BALB/c mouse at 1 mg/kg, iv measured upto 24 hrs by LC-MS/MS analysis; type: ADME, organism-based; conditions: in vivo, read-out: Vdss
Cytochrome P450 2A6 = target: T1, Cytochrome P450 2A6 (Homo sapiens, UniProt P11509); experiment: Inhibition of CYP2A6 in human liver microsomes at 10 uM by LC-MS/MS analysis; type: ADME
T1 sequence (P11509 whole entry): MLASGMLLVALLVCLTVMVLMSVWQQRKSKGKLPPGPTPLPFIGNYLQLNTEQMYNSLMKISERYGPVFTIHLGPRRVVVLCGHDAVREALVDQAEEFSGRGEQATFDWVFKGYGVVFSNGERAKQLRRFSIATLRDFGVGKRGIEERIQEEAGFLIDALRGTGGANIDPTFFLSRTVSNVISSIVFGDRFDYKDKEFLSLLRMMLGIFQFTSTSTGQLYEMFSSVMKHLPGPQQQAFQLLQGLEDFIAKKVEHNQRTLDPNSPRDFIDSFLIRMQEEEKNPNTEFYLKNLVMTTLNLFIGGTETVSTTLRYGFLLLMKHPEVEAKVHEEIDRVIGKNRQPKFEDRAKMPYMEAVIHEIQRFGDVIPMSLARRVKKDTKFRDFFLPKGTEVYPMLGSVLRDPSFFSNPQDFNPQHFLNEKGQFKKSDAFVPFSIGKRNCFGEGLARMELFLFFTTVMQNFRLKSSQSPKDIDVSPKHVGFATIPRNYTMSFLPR

[10] = Metabolic stability in mouse liver microsomes preincubated for 5 mins followed by NADPH addition and measured upto 30 mins by LC-MS/MS analysis; type: ADME, Microsome; conditions: 0.5 h, time <=35 min
[11] = AUClast in BALB/c mouse at 10 mg/kg, po measured upto 24 hrs by LC-MS/MS analysis; type: ADME, organism-based; set-up: route oral, dose 10 mg/kg, time <=24; conditions: in vivo
[12] = Cmax in Lewis rat at 10 mg/kg, po measured upto 24 hrs by LC-MS/MS analysis; type: ADME, organism-based; set-up: route oral, dose 10 mg/kg, time <=24; conditions: in vivo
[13] = AUClast in BALB/c mouse at 1 mg/kg, iv measured upto 24 hrs by LC-MS/MS analysis; type: ADME, organism-based; set-up: route intravenous, dose 1 mg/kg, time <=24; conditions: in vivo
[14] = Metabolic stability in monkey liver microsomes preincubated for 5 mins followed by NADPH addition and measured upto 30 mins by LC-MS/MS analysis; type: ADME, Macaca mulatta, Microsome; conditions: rhesus monkey, 0.5 h, time <=35 min
[15] = Plasma protein binding; type: ADME, cell-free; conditions: read-out: PPB
Cytochrome P450 2B6 = target: T2, Cytochrome P450 2B6 (Homo sapiens, UniProt P20813); experiment: Inhibition of CYP2B6 in human liver microsomes at 10 uM by LC-MS/MS analysis; type: ADME
T2 sequence (P20813 whole entry): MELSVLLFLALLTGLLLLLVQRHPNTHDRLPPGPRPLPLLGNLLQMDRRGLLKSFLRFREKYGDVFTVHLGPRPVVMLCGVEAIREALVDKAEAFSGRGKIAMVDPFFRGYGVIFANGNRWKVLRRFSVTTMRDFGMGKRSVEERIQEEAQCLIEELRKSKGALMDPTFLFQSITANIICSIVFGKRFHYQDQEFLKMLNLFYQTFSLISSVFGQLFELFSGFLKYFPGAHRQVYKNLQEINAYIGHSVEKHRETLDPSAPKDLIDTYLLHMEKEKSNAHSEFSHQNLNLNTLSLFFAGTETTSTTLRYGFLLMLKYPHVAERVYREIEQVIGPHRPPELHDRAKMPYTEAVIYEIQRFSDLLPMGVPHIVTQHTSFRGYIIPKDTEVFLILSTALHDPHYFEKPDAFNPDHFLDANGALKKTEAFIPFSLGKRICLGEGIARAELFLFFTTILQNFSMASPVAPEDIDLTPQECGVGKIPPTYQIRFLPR

[16] = Half life in BALB/c mouse at 1 mg/kg, iv measured upto 24 hrs by LC-MS/MS analysis; type: ADME, organism-based; conditions: in vivo
Cytochrome P450 2C19 = Cytochrome P450 2C19 (Homo sapiens, UniProt P33261); experiment: Inhibition of CYP2C19 in human liver microsomes at 10 uM by LC-MS/MS analysis; type: ADME
Cytochrome P450 2C19, sequence (P33261 whole entry): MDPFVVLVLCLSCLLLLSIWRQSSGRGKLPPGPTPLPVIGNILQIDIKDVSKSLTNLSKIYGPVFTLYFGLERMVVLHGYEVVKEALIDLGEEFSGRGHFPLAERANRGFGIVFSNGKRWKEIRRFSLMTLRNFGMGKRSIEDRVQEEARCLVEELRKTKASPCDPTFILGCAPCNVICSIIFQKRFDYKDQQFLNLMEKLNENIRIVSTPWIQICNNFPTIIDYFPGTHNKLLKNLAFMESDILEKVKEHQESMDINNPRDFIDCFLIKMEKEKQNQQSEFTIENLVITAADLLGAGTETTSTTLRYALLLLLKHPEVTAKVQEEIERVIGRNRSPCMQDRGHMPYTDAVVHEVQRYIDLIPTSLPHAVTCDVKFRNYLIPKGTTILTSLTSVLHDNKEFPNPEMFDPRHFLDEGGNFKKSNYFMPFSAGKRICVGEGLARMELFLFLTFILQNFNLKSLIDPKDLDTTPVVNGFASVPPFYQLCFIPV

[17] = Clearance in BALB/c mouse at 1 mg/kg, iv measured upto 24 hrs by LC-MS/MS analysis; type: ADME, organism-based; conditions: in vivo
[18] = Half life in Lewis rat at 1 mg/kg, iv measured upto 24 hrs by LC-MS/MS analysis; type: ADME, organism-based; conditions: in vivo
[19] = Volume of distribution at steady state in Lewis rat at 1 mg/kg, iv measured upto 24 hrs by LC-MS/MS analysis; type: ADME, organism-based; conditions: in vivo, read-out: Vdss
[20] = AUClast in Lewis rat at 10 mg/kg, po measured upto 24 hrs by LC-MS/MS analysis; type: ADME, organism-based; set-up: route oral, dose 10 mg/kg, time <=24; conditions: in vivo
[21] = Tmax in BALB/c mouse at 10 mg/kg, po measured upto 24 hrs by LC-MS/MS analysis; type: ADME, organism-based; conditions: in vivo
Cytochrome P450 3A4 = Cytochrome P450 3A4 (Homo sapiens, UniProt P08684); experiment: Inhibition of CYP3A4 in human liver microsomes at 10 uM by LC-MS/MS analysis; type: ADME
Cytochrome P450 3A4, sequence (P08684 whole entry): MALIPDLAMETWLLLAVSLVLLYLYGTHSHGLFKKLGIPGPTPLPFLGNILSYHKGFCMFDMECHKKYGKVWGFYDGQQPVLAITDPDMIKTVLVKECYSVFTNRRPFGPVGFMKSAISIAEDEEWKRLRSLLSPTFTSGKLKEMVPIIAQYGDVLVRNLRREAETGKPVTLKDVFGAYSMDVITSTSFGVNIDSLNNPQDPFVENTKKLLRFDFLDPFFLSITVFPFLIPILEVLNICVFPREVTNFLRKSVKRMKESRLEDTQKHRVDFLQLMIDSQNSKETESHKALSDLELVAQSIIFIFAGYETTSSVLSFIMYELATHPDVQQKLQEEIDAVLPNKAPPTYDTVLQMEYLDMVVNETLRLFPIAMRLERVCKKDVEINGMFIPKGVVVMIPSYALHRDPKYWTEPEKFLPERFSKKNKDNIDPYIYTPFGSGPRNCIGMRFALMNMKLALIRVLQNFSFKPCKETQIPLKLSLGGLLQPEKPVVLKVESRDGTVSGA

Compound | Cmax [1] | bioavailability [2] | Papp B→A at 2 h, 5 µM [3] | clearance [4] | Cmax [5] | bioavailability [6] | Cmax [7] | inhibition (INH) (Cytochrome P450 2E1) | Papp A→B at 2 h, 5 µM [8] | inhibition (INH) (Cytochrome P450 2C9) | Vd [9] | inhibition (INH) (Cytochrome P450 2A6) | Stability [10] | AUC(0-t) at 24 h [11] | Cmax [12] | AUC(0-t) at 24 h [13] | Stability [14] | fraction unbound [15] | inhibition (INH) (Cytochrome P450 2B6) | half-life [16] | further results
Cc1c(-c2ccc(NC(=O)c3c(F)cccc3F)cc2)cccc1-c1nn(C)c(=O)o1 | 4 µM | 79% | 6.2 ×10⁻⁶ cm/s | 0.9 mL/min/kg | 4 µM | 100% | 4.2 µM | Not Active | 14.1 ×10⁻⁶ cm/s | Not Active | 2.3 L/kg | Not Active | Stable | 56 µM·h | 20 µM | 7.1 µM·h | Stable | 0.01 | Not Active | 6.4 h | inhibition (INH) (Cytochrome P450 2C19): Not Active; clearance [17]: 5.2 mL/min/kg; half-life [18]: > 15 h; Vd [19]: 1 L/kg; AUC(0-t) at 24 h [20]: 353 µM·h; Tmax [21]: 1 h; inhibition (INH) (Cytochrome P450 3A4): Not Active
Cc1c(-c2ccc(NC(=O)c3c(F)cccc3Cl)cc2)cccc1-c1nn(C)c(=O)o1 | 4.7 µM | 100% | 4.5 ×10⁻⁶ cm/s | 1 mL/min/kg | 5 µM | 60% | 4.3 µM | Not Active | 12.3 ×10⁻⁶ cm/s | Not Active | 2.3 L/kg | Not Active | Stable | 44 µM·h | 10 µM | 4 µM·h | Stable | 0.01 | Not Active | 5 h | inhibition (INH) (Cytochrome P450 2C19): Not Active; clearance [17]: 8 mL/min/kg; half-life [18]: 13 h; Vd [19]: 1 L/kg; AUC(0-t) at 24 h [20]: 167 µM·h; Tmax [21]: 1 h; inhibition (INH) (Cytochrome P450 3A4): Not Active
